Source: patent publication US20140309295A1, “ANTIEPILEPTIC, HYPOCHOLESTEROLEMIC AND NEUROPROTECTIVE COMPOUND” (NEURON BIOPHARMA, S.A., priority 2009, published 2014)

What was measured:
[1] = test system: human neuroblastoma SK-N-MC cells; assay: Protection against neuronal death induced by oxidative stress (xanthine/xanthine oxidase), WST-1; format: cell-based
Experimental: (§1) The assay was performed on human neuroblastoma SK-N-MC cells in culture from the American Type Culture Collection (ATCC), in all cases strict rules of sterility were followed and the manipulation was performed in class II biological safety cabinets following European standard EN 12469. The cells were maintained in the following culture medium: Minimum Essential Medium Eagle (MEM) supplemented with 1 mM sodium pyruvate, 2 mM L-glutamine, 0.1 mM non-essential amino acids, 0.05 mg/ml gentamicin and 10% fetal bovine serum.
The inhibition caused by compound NST0037 of cell death caused by treatment with xanthine/xanthine oxidase which generates oxidative damage (causes free radicals such as hydrogen peroxide, superoxide anion, hydroxyl radical), which triggers cell death, was analyzed. These cells, not exceeding 15 passages, were seeded on 96-well plates treated for adherent cells with a cell concentration of 5×10^4 cells/well; 3 wells of the plate were seeded for each condition of the assay.
After 24 hours of cell incubation at 37° C. and 5% CO2, the cell treatments were performed with 100 μl of total volume for the following conditions: • Control: culture medium (medium) • Xanthine/xanthine oxidase (XXO): medium plus 10 μM xanthine/60 mU/mL xanthine oxidase, causing the death of 50% of the cells. • XXO plus NST0037: medium plus XXO (10 μM/60 mU/mL) plus NST0037 at 1, 4, 10, 20, 40 or 100 μM.
The cells were incubated (at 37° C. and 5% CO2) with these treatments for 22 hours, after which time the WST-1 reagent (Roche) was added. The Test WST-1 is based on the measurement of metabolic activity. Cell damage causes the loss of the ability of cells to obtain the energy necessary to maintain their metabolic functions and cell growth, therefore the metabolically active (live) cells reduce tetrazolium salt to formazan by means of the succinate-tetrazolium reductase system (of the mitochondrial respiratory chain). The formazan which is formed can be detected colorimetrically since it has an absorbance of 440 nm. The reading was taken in a plate reader at 440 nm 2 hours after adding the reagent.
The assay was performed on human neuroblastoma SK-N-MC cells in culture from the American Type Culture Collection (ATCC), in all cases strict rules of sterility were followed and the manipulation was performed in class II biological safety cabinets following European standard EN 12469. […]
The effect of mevalonate on the protection caused by compound NST0037 against cell death caused by the treatment with xanthine/xanthine oxidase generating oxidative damage and cell death was analyzed. […]

[2] = test system: human neuroblastoma SK-N-MC cells; assay: Inhibition of camptothecin-induced apoptosis by flow cytometry (sub-G1); format: cell-based; settings: pretreatment 40 μM NST0037 with 100 μM mevalonate
Experimental: as §1
The inhibition caused by compound NST0037 against apoptosis (programmed cell death) caused by treatment with camptothecin which inhibits the enzyme Topoisomerase I, which prevents DNA duplication and triggers apoptotic cell death, was analyzed. These cells, not exceeding 15 passages, were seeded on 6-well plates treated for adherent cells with a cell concentration of 8×10^5 cells/well and 7×10^5 cells/well for the assay with pretreatment; 2 wells of the plate were seeded for each condition of the assay.
After 24 hours of cell incubation at 37° C. and 5% CO2, the cell treatments were performed with 2 ml of total volume for the following conditions: • Control: culture medium (medium) • Camptothecin: medium plus camptothecin 50 μM. • Camptothecin plus Z-VAD-fmk: medium plus 50 μM camptothecin plus 50 μM Z-VAD-fmk, as positive inhibition control. • Camptothecin plus NST0037: medium plus 50 μM camptothecin plus NST0037 at 10, 40 or 100 μM.
In the assay with pretreatment, the cells were previously treated with 40 μM of NST0037, 100 μM of mevalonate or both together for 24 hours and then they were treated with 50 μM camptothecin, the rest of the procedure was similar to the assay without pretreatment.
The cells were incubated (at 37° C. and 5% CO2) with these treatments for 6 hours, after which time they were collected along with their culture medium and centrifuged at 300×g for 5 minutes. The medium was removed, a washing was performed with PBS and the cells were fixed for 2 minutes with 500 μl of 70% ethanol at −20° C. Once fixed, they were centrifuged at 400×g for 5 minutes, washed with PBS and 0.05 mg/ml propidium iodide, diluted in cycling buffer (0.1% sodium citrate, 0.3% Nonidet P-40 and 0.02 mg/ml RNase) were added and they were incubated for 1 hour at 37° C. After this time they were analyzed by flow cytometry, comparing the fluorescence of propidium iodide against the amount of DNA. The percentage of apoptosis was measured on the sub-G1 region of each of the conditions.

caspase 3/7 = assay: Inhibition of camptothecin-induced activation of caspase 3/7 in SK-N-MC cells; format: cell-based, human; settings: 100 μM mevalonate with NST0037 pretreatment
Experimental: The assay was performed on human neuroblastoma SK-N-MC cells in culture from the American Type Culture Collection (ATCC), in all cases strict rules of sterility were followed and the manipulation was performed in class II biological safety cabinets following European standard EN 12469. The cells were maintained in the following culture medium: Minimum Essential Medium Eagle (MEM) supplemented with 1 mM sodium pyruvate, 2 mM L-glutamine, 0.1 mM non-essential amino acids, 0.05 mg/ml gentamicin and 10% fetal bovine serum. The induction of apoptosis on the cells in culture was performed by means of incubation with camptothecin (CPT), which triggers cell apoptosis activation. The apoptosis was determined by means of the measurement of the activation of effector caspases, caspase 3 or caspase 7, for which a kit for the fluorometric detection of active caspase 3/7 (Apo-ONE® Homogeneous Caspase-3/7, Promega) was used. The active caspase 3 or 7 of the cells cause the rupture of a substrate, which leads to fluorescence emission, which is read by means of a fluorometer. The effect of the pretreatment of compound NST0037 at 10 and 40 μM on the activation of caspase 3/7 caused by 50 μM of camptothecin (CPT) in the SK-N-MC cells was thus analyzed. These cells, not exceeding 15 passages, were seeded on 96-well plates treated for adherent cells with a cell concentration of 5×10^4 cells/well, 3 wells of the plate were seeded for each condition of the assay. After 24 hours of cell incubation at 37° C. and 5% CO2, the pretreatment with NST0037 at 10 and 40 μM was performed. […] On the following day, fluorescence was measured (499/521 nm, […]).

Q: What does the source list for `CC(O)(CCO)CC(=O)O` (stereo not shown) [mevalonate, reference compound]?
A: effect of mevalonate on protection by NST0037 against death by XXO ([1]; 40 μM NST0037 plus mevalonate at 10, 40 and 100 μM): inhibited; protection by mevalonate alone against death by XXO ([1]; mevalonate at 10, 40 or 100 μM): does not protect against death by XXO; effect of mevalonate on the protection exerted by NST0037 against apoptosis [2]: partially inhibited; effect of mevalonate on inhibition of caspase 3/7 by NST0037 (caspase 3/7): reverted this inhibition
